Assay results published in paper PMC11631053, “A receptor-based assay to study the sweet and bitter tastes of sweeteners and binary sweet blends: the SWEET project” (Chemical Senses, 2024).
Like-named read-outs stand apart in the source and are kept apart here.

Columns and labels:
TAS2R7 = molecular target: T1, TAS2R7 (Homo sapiens, UniProt Q9NYW3); assay: Calcium mobilization assay, HEK293T-Gα16gust44 cells expressing TAS2R7; conditions: maximal concentration tested: sucralose 100 mM, neotame 30 µM, Ace-K 300 mM, RebA 4 mM, RebM 4 mM, mogroside V 5 mM, erythritol 200 mM, D-allulose 500 mM, thaumatin 100 mM
T1 sequence (Q9NYW3 1-318): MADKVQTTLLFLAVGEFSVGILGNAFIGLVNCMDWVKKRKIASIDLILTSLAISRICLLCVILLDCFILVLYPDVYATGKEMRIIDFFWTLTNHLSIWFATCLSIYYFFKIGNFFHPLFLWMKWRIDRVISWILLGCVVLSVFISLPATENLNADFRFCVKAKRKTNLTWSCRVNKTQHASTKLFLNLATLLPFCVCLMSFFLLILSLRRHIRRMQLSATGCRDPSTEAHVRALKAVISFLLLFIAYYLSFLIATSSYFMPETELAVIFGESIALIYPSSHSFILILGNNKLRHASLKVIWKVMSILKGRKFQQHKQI
Procedure: (§1) Different concentration ranges were tested depending on the injected sweet compound. […] All of the concentration-receptor combinations were measured in triplicate, and each experiment was repeated at least 3 times. The Ca^2+ change was expressed as a fractional change in fluorescent light intensity: ΔF/F = (F − F0)/F0, where F was the fluorescent light intensity at each point, and F0 was the value of fluorescent light emitted prior to stimulus application. To calculate dose–response relationships, the changes in fluorescence upon stimulus application were averaged, mock-subtracted and baseline-corrected. The resulting obtained dose–response data were adjusted by using a 4-parameter logistic equation. The half-maximal effective concentration (EC50) was calculated by using SigmaPlot software (Systat Software, San Jose, CA, USA) as described in supplemental Supplementary Figs. S1, S2, and S3.

TAS2R9 = molecular target: T2, TAS2R9 (Homo sapiens, UniProt Q9NYW1); assay: Calcium mobilization assay, HEK293T-Gα16gust44 cells expressing TAS2R9; conditions: maximal concentration tested: sucralose 100 mM, neotame 30 µM, Ace-K 300 mM, RebA 4 mM, RebM 4 mM, mogroside V 5 mM, erythritol 200 mM, D-allulose 500 mM, thaumatin 100 mM
T2 sequence (Q9NYW1 1-312): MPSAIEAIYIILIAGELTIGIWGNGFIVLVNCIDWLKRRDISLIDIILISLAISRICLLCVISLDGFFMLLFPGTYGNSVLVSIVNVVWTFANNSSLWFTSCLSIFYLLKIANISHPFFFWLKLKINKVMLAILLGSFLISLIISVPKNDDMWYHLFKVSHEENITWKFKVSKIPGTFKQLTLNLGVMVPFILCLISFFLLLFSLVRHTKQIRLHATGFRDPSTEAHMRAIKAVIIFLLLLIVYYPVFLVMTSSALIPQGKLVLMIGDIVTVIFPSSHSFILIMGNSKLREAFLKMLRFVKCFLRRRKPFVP
Procedure: as §1

TAS1R2/TAS1R3 = molecular target: T3, TAS1R2/TAS1R3 (Homo sapiens, UniProt Q7RTX0+Q8TE23); assay: Calcium mobilization assay, HEK293T-Gα16gust44 cells expressing the sweet taste receptor
T3 sequence (Q8TE23 20-839): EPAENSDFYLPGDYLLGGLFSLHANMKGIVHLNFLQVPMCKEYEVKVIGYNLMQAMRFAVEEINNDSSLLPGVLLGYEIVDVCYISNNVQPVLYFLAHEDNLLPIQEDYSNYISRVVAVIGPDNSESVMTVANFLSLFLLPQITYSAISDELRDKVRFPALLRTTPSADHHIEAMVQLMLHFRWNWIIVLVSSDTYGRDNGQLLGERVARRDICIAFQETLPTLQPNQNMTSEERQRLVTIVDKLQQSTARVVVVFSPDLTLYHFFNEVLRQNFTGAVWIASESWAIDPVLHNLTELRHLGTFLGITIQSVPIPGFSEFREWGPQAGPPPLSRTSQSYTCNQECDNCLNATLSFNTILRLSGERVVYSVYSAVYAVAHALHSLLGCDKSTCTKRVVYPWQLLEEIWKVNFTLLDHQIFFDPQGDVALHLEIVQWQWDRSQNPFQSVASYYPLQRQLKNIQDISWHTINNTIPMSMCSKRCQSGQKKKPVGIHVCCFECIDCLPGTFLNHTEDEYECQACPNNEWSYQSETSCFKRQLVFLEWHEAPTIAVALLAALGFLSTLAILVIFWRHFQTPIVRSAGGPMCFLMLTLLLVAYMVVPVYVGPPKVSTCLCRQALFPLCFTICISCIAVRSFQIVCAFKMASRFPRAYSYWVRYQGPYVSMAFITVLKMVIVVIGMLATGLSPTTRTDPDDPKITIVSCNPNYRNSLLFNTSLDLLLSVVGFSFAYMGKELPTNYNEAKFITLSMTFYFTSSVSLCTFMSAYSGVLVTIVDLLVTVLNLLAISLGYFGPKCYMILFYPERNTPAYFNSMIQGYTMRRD
T3 sequence (Q7RTX0 21-852): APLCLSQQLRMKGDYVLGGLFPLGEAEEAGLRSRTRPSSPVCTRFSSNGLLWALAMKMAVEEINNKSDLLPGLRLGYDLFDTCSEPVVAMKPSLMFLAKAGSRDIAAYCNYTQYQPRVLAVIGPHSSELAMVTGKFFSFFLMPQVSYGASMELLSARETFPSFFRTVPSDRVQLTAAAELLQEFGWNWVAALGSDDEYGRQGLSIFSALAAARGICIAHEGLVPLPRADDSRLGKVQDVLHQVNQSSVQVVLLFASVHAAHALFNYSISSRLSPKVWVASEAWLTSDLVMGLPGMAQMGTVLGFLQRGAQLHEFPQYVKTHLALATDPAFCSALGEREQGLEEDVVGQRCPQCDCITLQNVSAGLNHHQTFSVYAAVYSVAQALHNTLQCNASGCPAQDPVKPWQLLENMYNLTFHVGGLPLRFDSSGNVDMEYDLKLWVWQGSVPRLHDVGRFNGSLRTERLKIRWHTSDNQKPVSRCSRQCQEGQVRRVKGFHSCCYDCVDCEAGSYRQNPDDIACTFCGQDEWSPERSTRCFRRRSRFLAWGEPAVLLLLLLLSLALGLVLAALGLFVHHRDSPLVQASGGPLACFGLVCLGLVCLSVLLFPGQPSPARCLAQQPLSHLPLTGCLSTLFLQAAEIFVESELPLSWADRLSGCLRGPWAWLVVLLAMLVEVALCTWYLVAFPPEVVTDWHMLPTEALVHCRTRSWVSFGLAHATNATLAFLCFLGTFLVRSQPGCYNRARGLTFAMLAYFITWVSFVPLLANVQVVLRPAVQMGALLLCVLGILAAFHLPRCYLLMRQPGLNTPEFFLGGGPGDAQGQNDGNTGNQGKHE
Procedure: (§2) Different concentration ranges were tested depending on the injected sweet compound. […] All of the concentration-receptor combinations were measured in triplicate, and each experiment was repeated at least 3 times. The Ca^2+ change was expressed as a fractional change in fluorescent light intensity: ΔF/F = (F − F0)/F0, where F was the fluorescent light intensity at each point, and F0 was the value of fluorescent light emitted prior to stimulus application. To calculate dose–response relationships, the changes in fluorescence upon stimulus application were averaged, mock-subtracted and baseline-corrected. The resulting obtained dose–response data were adjusted by using a 4-parameter logistic equation.

TAS2R38 = molecular target: T4, TAS2R38 (Homo sapiens, UniProt P59533); assay: Calcium mobilization assay, HEK293T-Gα16gust44 cells expressing TAS2R38; conditions: maximal concentration tested: sucralose 100 mM, neotame 30 µM, Ace-K 300 mM, RebA 4 mM, RebM 4 mM, mogroside V 5 mM, erythritol 200 mM, D-allulose 500 mM, thaumatin 100 mM
T4 sequence (P59533 1-333): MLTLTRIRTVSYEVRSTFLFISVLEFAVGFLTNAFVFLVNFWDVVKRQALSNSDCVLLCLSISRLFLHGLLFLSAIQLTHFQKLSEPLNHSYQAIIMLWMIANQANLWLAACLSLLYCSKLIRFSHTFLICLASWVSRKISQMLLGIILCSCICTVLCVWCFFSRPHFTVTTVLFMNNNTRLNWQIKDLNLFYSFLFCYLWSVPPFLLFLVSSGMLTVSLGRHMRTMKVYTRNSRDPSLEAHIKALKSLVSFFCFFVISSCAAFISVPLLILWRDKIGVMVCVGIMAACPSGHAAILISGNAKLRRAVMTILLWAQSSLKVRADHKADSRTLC
Procedure: as §2

[1] = maximal signal amplitude, sweet compound alone
[2] = RebM in the presence of mogroside V 0 µM
[3] = read-out: EC50 value, sweet compound alone
[4] = neotame in the presence of D-allulose 0 mM
[5] = mogroside V in the presence of thaumatin 0 µM

Row | Compound | Response of TAS2R7 (TAS2R7) | Response of TAS2R9 (TAS2R9) | Max ΔF/F0 (TAS1R2/TAS1R3; [1]) | Response of TAS2R38 (TAS2R38) | EC50 (TAS1R2/TAS1R3; [3]) | also measured
1 | O=C(CO)[C@H](O)[C@H](O)[C@H](O)CO [D-allulose] | − | − | 0.50 ± 0.12 | + |  | activation of the sweet taste receptor by the compound alone (TAS1R2/TAS1R3; 3 to 30 mM): did not activate the sweet taste receptor
2 | C=C1C[C@@]23CC[C@H]4[C@@](C)(CCC[C@@]4(C)C(=O)O[C@@H]4O[C@H](CO)[C@@H](O)[C@H](O[C@@H]5O[C@H](CO)[C@@H](O)[C@H](O)[C@H]5O)[C@H]4O[C@@H]4O[C@H](CO)[C@@H](O)[C@H](O)[C@H]4O)[C@@H]2CC[C@]1(O[C@@H]1O[C@H](CO)[C@@H](O)[C@H](O[C@@H]2O[C@H](CO)[C@@H](O)[C@H](O)[C@H]2O)[C@H]1O[C@@H]1O[C@H](CO)[C@@H](O)[C@H](O)[C@H]1O)C3 [RebM, Rebaudioside M] | − | − | 0.16 ± 0.01 | − | 34 ± 2 µM | EC50 (TAS1R2/TAS1R3; [2]): 36 ± 2 µM; Max ΔF/F0 (TAS1R2/TAS1R3; [2]): 0.17 ± 0.01; Max ΔF/F0 (TAS1R2/TAS1R3; RebM in the presence of mogroside V 0.03 µM): 0.16 ± 0.01; Max ΔF/F0 (TAS1R2/TAS1R3; RebM in the presence of mogroside V 1 µM): 0.18 ± 0.01; Max ΔF/F0 (TAS1R2/TAS1R3; RebM in the presence of mogroside V 3 µM): 0.17 ± 0.01; Max ΔF/F0 (TAS1R2/TAS1R3; RebM in the presence of mogroside V 5 µM): 0.12 ± 0.01; Max ΔF/F0 (TAS1R2/TAS1R3; RebM in the presence of mogroside V 10 µM): 0.12 ± 0.01
3 | OC[C@@H](O)[C@@H](O)CO [Erythritol, erythritol] | − | − | 0.06 ± 0.01 | − |  | EC50 (TAS1R2/TAS1R3): 56000 ± 10000 µM
4 | CC1=CC(=O)NS(=O)(=O)O1 [Ace-K, acesulfame-K] | − | − |  | − |  | EC50 (TAS1R2/TAS1R3): 410 ± 94 µM
5 | thaumatin | − | − | 0.12 ± 0.01 | − |  | activation of the sweet taste receptor by the compound alone (TAS1R2/TAS1R3; concentrations less than 3 µM): unable to activate the sweet taste receptor on its own
6 | COC(=O)[C@H](Cc1ccccc1)NC(=O)[C@H](CC(=O)O)NCCC(C)(C)C [Neotame] | − | − | 0.16 ± 0.01 | − | 2.26 ± 0.23 µM | EC50 (TAS1R2/TAS1R3; [4]): 2.37 ± 0.34 µM; Max ΔF/F0 (TAS1R2/TAS1R3; [4]): 0.16 ± 0.01; Max ΔF/F0 (TAS1R2/TAS1R3; neotame in the presence of D-allulose 3 mM): 0.17 ± 0.01; Max ΔF/F0 (TAS1R2/TAS1R3; neotame in the presence of D-allulose 10 mM): 0.21 ± 0.01; Max ΔF/F0 (TAS1R2/TAS1R3; neotame in the presence of D-allulose 30 mM): 0.17 ± 0.00; increase in sweetness potency (TAS1R2/TAS1R3; neotame with addition of D-allulose (3 to 30 mM), leftward shift of dose–response curves): approximately 2.5 fold
7 | C[C@H](CC[C@@H](O[C@@H]1O[C@H](CO[C@@H]2O[C@H](CO)[C@@H](O)[C@H](O)[C@H]2O)[C@@H](O)[C@H](O)[C@H]1O[C@@H]1O[C@H](CO)[C@@H](O)[C@H](O)[C@H]1O)C(C)(C)O)[C@H]1CC[C@@]2(C)[C@@H]3CC=C4[C@@H](CC[C@H](O[C@@H]5O[C@H](CO[C@@H]6O[C@H](CO)[C@@H](O)[C@H](O)[C@H]6O)[C@@H](O)[C@H](O)[C@H]5O)C4(C)C)[C@]3(C)[C@H](O)C[C@]12C [Mogroside V, mogroside V] | − | − | 0.14 ± 0.01 | + | 23 ± 2 µM | concentration of saturation of the sweet taste receptor (TAS1R2/TAS1R3): ~500 µM; decrease in the EC50 values (TAS1R2/TAS1R3; in the presence of thaumatin 0.3 to 10 µM): 3 fold; decrease in the EC50 value (TAS1R2/TAS1R3; mogroside V in the presence of 10 µM thaumatin): 4 fold; EC50 (TAS1R2/TAS1R3; [5]): 29 ± 4 µM; Max ΔF/F0 (TAS1R2/TAS1R3; [5]): 0.14 ± 0.01; Max ΔF/F0 (TAS1R2/TAS1R3; mogroside V in the presence of thaumatin 0.03 µM): 0.19 ± 0.01; Max ΔF/F0 (TAS1R2/TAS1R3; mogroside V in the presence of thaumatin 1 µM): 0.18 ± 0.04; Max ΔF/F0 (TAS1R2/TAS1R3; mogroside V in the presence of thaumatin 3 µM): 0.18 ± 0.01; Max ΔF/F0 (TAS1R2/TAS1R3; mogroside V in the presence of thaumatin 10 µM): 0.17 ± 0.01
8 | OC[C@H]1O[C@H](O[C@]2(CCl)O[C@H](CCl)[C@@H](O)[C@@H]2O)[C@H](O)[C@@H](O)[C@H]1Cl [Sucralose, sucralose] | − | − | 0.13 ± 0.01 | − | 78 ± 11 µM | concentration at which maximal signal amplitude is reached (TAS1R2/TAS1R3): below 1 mM; Max ΔF/F0 (TAS1R2/TAS1R3; sucralose in the presence of Ace-K 0 µM): 0.13 ± 0.01; Max ΔF/F0 (TAS1R2/TAS1R3; sucralose in the presence of Ace-K 10 µM): 0.15 ± 0.01; Max ΔF/F0 (TAS1R2/TAS1R3; sucralose in the presence of Ace-K 30 µM): 0.12 ± 0.01; Max ΔF/F0 (TAS1R2/TAS1R3; sucralose in the presence of Ace-K 100 µM): 0.14 ± 0.01
